Results published in US6555055B1, “System for preventing and remediating biofilms in dental equipment” (Lynntech, Inc., priority 1998, dated 2003).

How the values were obtained:
[1] = test system: established biofilm in a previously used dental unit
Text: The experiment consisted of first re-invigorating an established biofilm in a previously used dental unit (A-Dec, a 1980 model) by running tap water, which had been determined to have a bacterial count of 10^4 cfu/mL, through the apparatus at hourly intervals between 9:00 a.m. and 4:00 p.m. for a total of 10 days. […] This limited the organisms monitored to those originating from the biofilm.
Only one bottle was used at a time, either one containing deionized water (filtered through a 0.2 micron filter), or one containing a 1% H2O2 solution (Kroger brand 3%, diluted with deionized water to a 1% solution). Every morning at 9:00 a.m., the H2O2 bottle was connected to the compressed air cylinder and the junction box (which connects the reservoir to the dental cart). The second air cylinder was directly connected to the junction box which provided air to the dental cart tools and allowed the peroxide or water solution to be misted out of the high-speed handpiece to simulate dental office use. Both air cylinders were opened, and H2O2 was run through the unit by pressurizing the bottle. A 50 mL bolus of the H2O2 solution was run through as the line to the dental cart/handpiece holds approximately 40 mL. The H2O2 bottle was then removed, and the bottle containing only water was connected into the set-up in exactly the same way. Approximately 150 mL of water were run through the unit to ensure that all of the H2O2 was rinsed out of the line. For the remainder of the day, to simulate normal operation in a dentist's office where the water is left stagnant 99% of the time, the line was flushed with 150 mL of water every hour. At 4:00 p.m., a 2 mL sample of water was collected from the high-speed handpiece into a 15 mL sterile centrifuge tube (Fisher brand). […] The plates were counted using a MANOSTAT brand colony counter after 2-3 days incubation time at 37° C., selected as the optimal growth temperature for human pathogens.
After the H2O2 treatment, 150 mL of sterile, deionized water was run through the unit at hourly intervals between the hours of 9:00 a.m. and 4:00 p.m. to simulate normal dental office operating conditions, where water is left stagnant most of the time. On day 35, the unit was treated for 4 days with 2% H2O2 in the same manner previously described. This was done to assess the effect of higher concentrations of peroxide on the biofilm.
On day 40, the peroxide treatment procedure was changed slightly. Instead of applying the 2% H2O2 solution in the morning it remained in the dental lines overnight. From 9.00 a.m. to 4 p.m. daily the unit was flushed with 150 mL of sterile water. […] At 9.00 a.m., the following morning, the sterile water flushes began again.
At the end of the day after the last flushing, a 2 mL sample of water was collected from the hand piece. […]

[2] = test system: bacteria; conditions: cited from earlier work

OO [hydrogen peroxide]
Level demonstrated to be effective against existing biofilms [1]: 2%
Microbial load of water from the high-speed handpiece ([1]; 1% H2O2 applied in the morning, sample in the afternoon after hourly flushings, initial applications (Region II)): < 200 cfu/mL
Bacterial count of water from the handpiece ([1]; 2% H2O2 left in the lines overnight, from day 40 onwards, initial results): < 200 cfu/mL
Bacterial cell counts ([1]; 2% solution, applied in the morning, from day 35 for 4 days (Region IV)): lower bacterial cell counts than a 1% solution
Effect against a broad range of pathogens ([2]; 3%, Juven and Pierson): quite effective
Minimum level for use in an acidic sanitizing solution (lowest concentration described as effective as a germicide) ([2]; 21 CFR Part 178.1010 (c) (39), food utensils and food handling surfaces): ≥ 72 ppm
Concentration for bacteriostatic activity ([2]; Juven and Pierson): 0.0005%
Onset of bactericidal activity ([2]; Juven and Pierson): 0.0034%
Concentration required for broad bactericidal action over a short time span (minutes) ([2]; Thomas et. al.): at least 0.1%
Concentrations suppressing bacterial growth (bacteriostatic action) ([2]; Thomas et. al.): ≥ 0.0007%
Concentrations of biostatic control [2]: < 0.1%
Concentrations of efficient biocidal control [2]: 1%
Concentrations at which it is a potent bacteriostat ([2]; known): less than 100 ppm
